Laboratory results from patent US20080227738A1, “Compositions and methods for cell dedifferentiation and tissue regeneration” (University of Utah Research Foundation, priority 2000, published 2008).

Assays:
C2C12 myotubes = test: Characterization of RNLE activity: pretreated extract, BrdU S phase reentry in C2C12 myotubes; type: cell-based, mouse; conditions: C2C12 myotubes with RNLE
Experimental: C2C12 myotubes were plated at low density in DM as described above. Regeneration extract was treated in one of three ways: (1) boiled for 5 minutes; (2) digested with 1% trypsin for 30 minutes at 37° C.; or (3) taken through several freeze/thaw cycles. In three separate experiments, the treated extracts were applied to cultured myotubes at a concentration of 0.3 mg/ml with media and extract changed daily. Immediately after the extract was digested with 1% trypsin, the trypsin was inactivated by dilution in DM in which the cells were cultured. In the freeze/thaw experiments, extract activity was tested after both 2 and 3 freeze/thaw cycles. The effect of the pretreated extracts on myotube S phase reentry was assessed after 4 days of treatment by performing BrdU incorporation assays. The results were compared to BrdU incorporation in myotubes cultured in DM containing RNLE (positive control) and myotubes cultured in DM alone or DM containing nonRNLE (negative controls).
The dedifferentiation signal(s) found in the RNLE could belong to a number of different types of biomolecules, including proteins, lipids, nucleic acids, and polysaccharides. To characterize the nature of one or more of the active components of the RNLE, the inventors subjected the extract to a number of different conditions. […]

zebrafish fin regenerate [1] = test: Whole mount in situ hybridization of marker genes in zebrafish fin regenerates; type: in vivo
Source text: To generate antisense RNA probes with a dioxigenin labeling kit (Boehringer Mannheim), a 2.8 kb fgfr1 cDNA fragment, a 1.7 kb fgfr2 cDNA fragment, a 0.6 kb fgfr3 cDNA fragment, a 1.5 kb fgfr4 cDNA fragment (Thisse et al., 1995), a 1.2 kb msxb cDNA fragment, a 2.0 kb msxc cDNA (Akimenko et al., 1995), a 0.6 kb fgf8(ace) cDNA fragment (Reifers et al., 1998), a 2.2 kb fgf4.1 cDNA (Draper et al., 1999), a 2.4 kb wfgf cDNA (Draper et al., 1999), a 3.8 kb β-catenin cDNA (Kelly et al., 1995), a 2.6 kb flkl cDNA fragment (Liao et al., 1997), and a 1.8 kb shh cDNA (Krauss et al., 1993) were used. Fragments containing zebrafish fgfr cDNA sequences were isolated by degenerate PCR using known fgfr tyrosine kinase domain sequences of other species. The assignment of fgfr genes was based on homology comparisons; these sequences have been deposited in Genbank.
Fin regenerates were fixed overnight at 4° C. in 4% paraformaldehyde in phosphate-buffered saline (PBS), washed briefly in 2 changes of PBS, and transferred to methanol for storage at −20° C. Fins were rehydrated stepwise through ethanol in PBS and then washed in 4 changes of PBS-0.1% polyoxyethylenesorbitan monolaurate (Tween-20; PBT). Then, fins were incubated with 10 μg/ml proteinase K in PBT for 30 minutes and rinsed twice in PBT before 20 minutes refixation. After five washes with PBT, fins were prehybridized at 65° C. for one hour in buffer consisting of 50% formamide, 5×SSC (750 mM NaCl, 75 mM sodium citrate, pH 7.0), 0.1% Tween-20, 50 μg/ml heparin, and 500 μg/ml yeast RNA (pH to 6.0 with citric acid), and then hybridized overnight in hybridization buffer including 0.5 μg/ml dioxigenin-labeled RNA probe. Fins were washed at 65° C. for 10 minutes each in 75% hybridization buffer/25% 2×SSC, 50% hybridization buffer/50% 2×SSC, and 25% hybridization buffer/75% 2×SSC, followed by 2 washes for 30 minutes each in 0.2×SSC at 65° C. Further washes for 5 minutes each were done at room temperature in 75% 0.2×SSC/25% PBT, 50% 0.2×SSC/50% PBT, and 25% 0.2×SSC/75% PBT. After a one hour incubation period in PBT with 2 mg/ml bovine serum albumin, fins were incubated for 2 hours in the same solution with a 1:2000 dilution of fin-preabsorbed, anti-dioxigenin antibody coupled to alkaline phosphatase (Boehringer Mannheim). For the alkaline phosphatase reaction, fins were first washed 3 times in reaction buffer (100 mM Tris-HCl pH 9.5, 50 mM MgCl2, 100 mM NaCl, 0.1% Tween-20, 1 mM levamisol) and then incubated in reaction buffer with 1× nitro blue terazolium/5-bromo-4-chloro-3-indolyl-phosphate (NBT/BCIP) substrate. In general, positive signals were obtained in 0.5-3 hours. Following the staining reaction, fins were washed in several changes of PBT and fixed in 4% paraformaldehyde in PBS. To obtain sections of fin regenerates, fins were first mounted in 1.5% agarose/5% sucrose and then incubated in 30% sucrose overnight. Frozen blocks were sectioned at 14 μm and observed using Nomarski optics.
For each probe, at least 7 fins were examined for expression at 0, 6, 12, 18, 24, 48, and 96 hours post-amputation. For 18, 24, and 48 hour timepoints with fgfr1, msxb, msxc, and wfgf probes, 25-100 fins were examined in several different experiments. Experiments with sense strand RNA probes were performed with initial antisense experiments to estimate the specificity of signals. To assess gene expression in pharmacologically treated fins, an equal number of untreated fins were also examined.
To investigate the molecular effects of this outgrowth inhibition by Ri, marker expression was examined following a 24 hour R1 application period. […] Similar effects on msxc expression were observed (n=8). msxb expression was not detected in 24 or 48 hour fin regenerates exposed to R1 for 48 hours (n=18). Thus, Fgf signaling is required for blastema maintenance and regenerative outgrowth, but is not crucial for other processes including melanocyte migration or bone deposition. […]

[2] = molecular target: Flkl, a vascular endothelial growth factor receptor (Homo sapiens, UniProt P35968); conditions: cited from earlier work
insulin receptor = molecular target: T1, insulin receptor (Homo sapiens, UniProt P06213); conditions: mammalian cells; cited from earlier work
T1 construct: host or cells: mammalian cells (not specified)

[3] = molecular target: T2, epidermal growth factor receptor (Homo sapiens, UniProt P00533); conditions: mammalian cells; cited from earlier work
T2 construct: host or cells: mammalian cells (not specified)

[4] = test system: platelet-derived growth factor receptor; conditions: mammalian cells; cited from earlier work
serine threonine kinases = conditions: cited from earlier work
zebrafish embryos = test: Application to developing zebrafish embryos; type: in vivo; conditions: at the IC50 concentration (printed 10-20 μl)
Experimental: The IC50 of Ri with respect to Fgfrl activity in mammalian cells was shown previously to be […] (Mohammadi et al., 1997). […] Such embryos appear remarkably similar to those injected with mRNA encoding a dominant-negative Fgfrl (Griffin et al., 1995).

[5] = Tolerability of inhibitor solution in adult zebrafish; type: in vivo; conditions: 1.7 μM or 17 μM in fish water, 0.01% DMSO
Experimental: (§1) SU5402 (Ri; SUGEN, South San Francisco, Calif.) was dissolved in dimethylsulfoxide (DMSO) and added to fish water at a final concentration of 1.7 μM or 17 μM (0.01% DMSO). Up to 10 fish were treated in one liter of water, and tanks were maintained in the dark at 31-33° C. with SU5402 solutions replaced every 24 hours.

[6] = test system: zebrafish caudal fin regenerate; test: Zebrafish caudal fin regeneration under Fgfr1 inhibitor treatment; type: in vivo
Experimental: Zebrafish 3-6 months of age were obtained from EKKWill Waterlife Resources (Gibsonton, Fla.) and used for caudal fin amputations. Fish were anaesthetized in tricaine and amputations were made using a razor blade, removing one-half of the fin. Animals were allowed to regenerate for various times in water kept at 31-33° C.; these temperatures facilitate more rapid regeneration than more commonly used temperatures of 25-28° C. (Johnson and Weston, 1995). Fish were then anaesthetized and the fin regenerate was removed for analyses.
as §1
To determine if signaling through Fgfrl is required for regeneration, zebrafish were treated for 96 hours with Ri immediately following amputation. Treatment of zebrafish with 1.7 μM Ri (0.5 mg/liter) inhibited fin regeneration to varying degrees.
To determine if a blastema forms in the absence of Fgf signaling, Ri-treated fin regenerates were examined morphologically.
Because wfgf and fgfr1 expression domains were maintained in the fin regenerate during outgrowth, and as blastemal cell BrdU incorporation was blocked by Ri, Fgf signaling likely participates in blastemal maintenance/regenerative outgrowth. To test this hypothesis, the effects of Ri on ongoing regenerates were examined.

zebrafish fin regenerate [7] = test: BrdU incorporation in regenerating zebrafish fins; type: in vivo; conditions: 17 μM
Experimental: BrdU was dissolved in PBS and fish were treated at a final concentration of 100 μg/ml. For one experiment, fins were amputated and allowed to regenerate for 18 or 24 hours in the absence or presence of 17 μM Ri, with BrdU present during the final 6 hours of regeneration. To test the effects of Ri on proliferation in the established blastema, fins were first allowed to regenerate for 40 hours. Then, untreated fish regenerated an additional 2 hours before a 6 hour incubation with BrdU, while Ri-treated fish underwent a 2 hour R1 preincubation period before a 6 hour period with both Ri and BrdU.
Fins were collected and fixed in 70% ethanol/2 mM glycine overnight, and 10 μm sections were made from frozen blocks. These sections were stained for BrdU incorporation using a detection kit (Roche; Basel, Switzerland), and counterstained with hematoxylin. Sections from untreated and Ri-treated fins were simultaneously processed and developed. […]
BrdU incorporation was used to analyze DNA replication and cellular proliferation. […] To determine if blastemal cells underwent DNA replication in the presence of Ri, BrdU incorporation in fins briefly treated with Ri during regenerative outgrowth (40-48 hours postamputation) was analyzed. […]

[8] = fins regenerated normally 24 or 48 hours, then 24 hour application, of 18 treated fins
[9] = treated from amputation, msxb: 21 fins, msxc: 8 fins
[10] = 1.7 μM (0.5 mg/liter), 96 hours from amputation, of 10 fins examined
[11] = Ri-treated fin regenerates, morphology

T2 sequence (P00533 25-1210): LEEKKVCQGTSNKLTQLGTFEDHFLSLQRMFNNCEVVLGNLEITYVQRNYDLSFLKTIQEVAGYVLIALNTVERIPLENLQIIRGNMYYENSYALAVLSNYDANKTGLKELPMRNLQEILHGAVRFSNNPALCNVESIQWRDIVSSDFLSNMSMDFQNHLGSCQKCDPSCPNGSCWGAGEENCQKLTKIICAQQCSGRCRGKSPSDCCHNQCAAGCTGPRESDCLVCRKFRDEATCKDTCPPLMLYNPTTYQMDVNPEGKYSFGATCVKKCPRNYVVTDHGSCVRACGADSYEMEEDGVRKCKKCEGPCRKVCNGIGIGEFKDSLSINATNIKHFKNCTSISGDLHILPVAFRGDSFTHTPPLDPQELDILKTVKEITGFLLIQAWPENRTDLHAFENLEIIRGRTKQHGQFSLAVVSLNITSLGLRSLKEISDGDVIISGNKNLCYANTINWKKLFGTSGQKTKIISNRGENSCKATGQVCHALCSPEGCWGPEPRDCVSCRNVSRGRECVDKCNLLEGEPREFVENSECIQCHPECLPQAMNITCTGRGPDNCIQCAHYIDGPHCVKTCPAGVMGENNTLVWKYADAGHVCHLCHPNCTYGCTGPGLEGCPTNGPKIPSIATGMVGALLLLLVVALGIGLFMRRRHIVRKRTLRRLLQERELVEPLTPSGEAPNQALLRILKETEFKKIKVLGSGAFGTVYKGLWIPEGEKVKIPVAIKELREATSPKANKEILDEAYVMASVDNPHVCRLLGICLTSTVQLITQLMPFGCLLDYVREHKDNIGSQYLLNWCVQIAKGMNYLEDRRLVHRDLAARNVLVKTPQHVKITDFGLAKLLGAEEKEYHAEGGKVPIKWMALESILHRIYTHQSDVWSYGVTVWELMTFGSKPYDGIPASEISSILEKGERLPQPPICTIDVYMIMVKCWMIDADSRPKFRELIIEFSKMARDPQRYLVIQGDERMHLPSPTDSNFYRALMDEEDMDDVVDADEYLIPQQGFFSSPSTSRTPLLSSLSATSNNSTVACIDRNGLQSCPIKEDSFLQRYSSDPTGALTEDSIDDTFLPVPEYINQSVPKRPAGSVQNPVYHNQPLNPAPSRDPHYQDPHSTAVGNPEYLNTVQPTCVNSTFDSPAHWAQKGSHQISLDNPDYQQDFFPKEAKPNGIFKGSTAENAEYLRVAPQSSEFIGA
Sequence of Flkl, a vascular endothelial growth factor receptor (P35968 20-1356): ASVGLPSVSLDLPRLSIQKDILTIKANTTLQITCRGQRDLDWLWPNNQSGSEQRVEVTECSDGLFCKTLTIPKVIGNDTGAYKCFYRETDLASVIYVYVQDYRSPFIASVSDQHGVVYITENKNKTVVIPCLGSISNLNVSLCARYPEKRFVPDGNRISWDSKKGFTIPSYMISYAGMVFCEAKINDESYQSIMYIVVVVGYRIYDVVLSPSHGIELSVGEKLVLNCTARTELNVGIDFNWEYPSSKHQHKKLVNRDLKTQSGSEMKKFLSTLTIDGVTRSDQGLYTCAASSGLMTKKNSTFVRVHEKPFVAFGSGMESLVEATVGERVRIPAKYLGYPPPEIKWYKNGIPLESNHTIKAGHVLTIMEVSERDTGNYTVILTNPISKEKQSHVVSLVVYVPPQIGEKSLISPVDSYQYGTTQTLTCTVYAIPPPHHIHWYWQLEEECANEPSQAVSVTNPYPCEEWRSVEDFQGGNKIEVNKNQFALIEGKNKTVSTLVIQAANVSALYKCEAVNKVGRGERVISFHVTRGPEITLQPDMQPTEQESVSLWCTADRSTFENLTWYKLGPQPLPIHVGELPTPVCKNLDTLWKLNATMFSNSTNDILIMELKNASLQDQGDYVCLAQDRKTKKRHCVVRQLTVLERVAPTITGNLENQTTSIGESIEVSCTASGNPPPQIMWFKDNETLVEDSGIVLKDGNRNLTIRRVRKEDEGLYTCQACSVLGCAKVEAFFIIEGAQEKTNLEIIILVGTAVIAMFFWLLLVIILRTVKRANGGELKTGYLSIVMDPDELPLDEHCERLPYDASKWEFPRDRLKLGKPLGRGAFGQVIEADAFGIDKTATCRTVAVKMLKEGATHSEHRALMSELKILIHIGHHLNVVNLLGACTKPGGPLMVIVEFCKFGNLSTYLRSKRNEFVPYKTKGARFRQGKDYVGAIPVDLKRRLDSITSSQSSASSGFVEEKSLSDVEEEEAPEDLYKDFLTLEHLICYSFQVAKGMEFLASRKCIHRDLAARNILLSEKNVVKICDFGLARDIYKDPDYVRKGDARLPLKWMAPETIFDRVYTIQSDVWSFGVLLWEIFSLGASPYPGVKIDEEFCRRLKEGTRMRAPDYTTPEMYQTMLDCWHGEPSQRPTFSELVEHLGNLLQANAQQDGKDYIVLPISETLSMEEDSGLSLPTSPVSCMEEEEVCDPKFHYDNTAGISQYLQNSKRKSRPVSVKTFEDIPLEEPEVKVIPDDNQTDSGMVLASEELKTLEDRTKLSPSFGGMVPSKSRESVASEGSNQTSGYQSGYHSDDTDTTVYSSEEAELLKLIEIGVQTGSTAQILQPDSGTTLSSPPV
T1 sequence (P06213 28-1382): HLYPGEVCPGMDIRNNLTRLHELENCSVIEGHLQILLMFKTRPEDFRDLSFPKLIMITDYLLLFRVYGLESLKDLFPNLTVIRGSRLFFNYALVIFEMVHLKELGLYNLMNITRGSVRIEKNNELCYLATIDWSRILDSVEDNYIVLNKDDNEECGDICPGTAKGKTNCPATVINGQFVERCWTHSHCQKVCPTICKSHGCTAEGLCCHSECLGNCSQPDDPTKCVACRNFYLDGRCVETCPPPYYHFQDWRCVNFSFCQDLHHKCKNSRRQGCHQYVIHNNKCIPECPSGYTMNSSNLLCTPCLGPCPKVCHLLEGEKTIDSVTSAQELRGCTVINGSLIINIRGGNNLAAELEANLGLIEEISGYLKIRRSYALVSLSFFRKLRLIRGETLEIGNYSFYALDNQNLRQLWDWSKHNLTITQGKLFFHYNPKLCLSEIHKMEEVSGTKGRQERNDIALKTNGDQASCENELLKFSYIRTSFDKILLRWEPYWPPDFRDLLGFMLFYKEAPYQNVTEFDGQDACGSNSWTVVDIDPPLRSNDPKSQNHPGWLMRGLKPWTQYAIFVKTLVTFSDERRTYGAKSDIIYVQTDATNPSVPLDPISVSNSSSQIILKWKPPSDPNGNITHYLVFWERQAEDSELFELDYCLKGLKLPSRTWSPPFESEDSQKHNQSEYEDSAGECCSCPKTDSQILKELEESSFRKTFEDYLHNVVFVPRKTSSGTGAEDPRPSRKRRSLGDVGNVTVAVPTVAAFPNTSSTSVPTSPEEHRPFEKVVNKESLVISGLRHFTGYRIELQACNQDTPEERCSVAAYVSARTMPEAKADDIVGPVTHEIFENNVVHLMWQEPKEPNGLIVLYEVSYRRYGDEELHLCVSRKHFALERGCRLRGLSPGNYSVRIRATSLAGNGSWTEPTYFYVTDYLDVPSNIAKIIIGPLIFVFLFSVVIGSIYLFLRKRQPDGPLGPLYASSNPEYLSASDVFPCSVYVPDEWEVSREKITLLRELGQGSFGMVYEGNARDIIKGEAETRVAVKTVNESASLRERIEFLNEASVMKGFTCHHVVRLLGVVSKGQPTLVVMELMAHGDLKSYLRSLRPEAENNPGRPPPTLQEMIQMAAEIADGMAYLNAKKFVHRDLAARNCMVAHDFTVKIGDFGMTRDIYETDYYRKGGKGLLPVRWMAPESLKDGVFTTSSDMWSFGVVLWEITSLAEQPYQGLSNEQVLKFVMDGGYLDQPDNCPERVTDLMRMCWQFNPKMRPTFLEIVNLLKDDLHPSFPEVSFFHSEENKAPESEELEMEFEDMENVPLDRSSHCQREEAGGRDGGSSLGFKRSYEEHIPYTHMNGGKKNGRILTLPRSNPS

## Cc1c[nH]c(/C=C2\C(=O)Nc3ccccc32)c1CCC(=O)O [SU5402]
C2C12 myotubes
  BrdU: effect of Fgfr inhibitor on RNLE S phase reentry: No effect
Zebrafish fin regenerate [1]; 24 or 48 hour fin regenerates exposed for 48 hours, n=18
  msxb expression after 48 hour exposure: not detected
Zebrafish fin regenerate [1]; 48 or 72 hour fin regenerates treated for 24 hours, of 18 fins
  Fins with detectable shh transcripts: 0
Zebrafish fin regenerate [1]; 48 or 72 hour regenerates, 24 hour application, n=16
  Epidermal wfgf expression: No significant reduction
Zebrafish fin regenerate [1]; Ri-treated fins, n=7
  β-catenin expression: normal
Zebrafish fin regenerate [1]; [8]
  Fins with low levels of msxb expression: 8
  Fins with no detectable msxb expression: 10
Zebrafish fin regenerate [1]; [9]
  msxb and msxc expression, 24 hour regenerates: extremely low or undetectable
  msxb and msxc expression, 48 hour regenerates: undetectable
[2]
  Concentration that inhibits Flkl: 10 to 20 µM
Insulin receptor
  Concentration at which insulin receptor is not blocked: greater than 50 μM
[3]
  Concentration at which epidermal growth factor receptor is not blocked: greater than 50 μM
[4]
  Concentration at which platelet-derived growth factor receptor is not blocked: greater than 50 μM
Serine threonine kinases
  Effects on activities of numerous serine threonine kinases: no effects
Zebrafish embryos
  Effect on developing zebrafish embryos: dramatic truncation of posterior structures
[5]
  Survival and behavior in inhibitor solution: survived normally and demonstrated no unusual behavior
[6]; [10]
  Fins that regenerated normally: 4
  Fins with a regenerative block: one
  Fins with slight regenerative defects: 5
[6]; 17 μM (5 mg/liter), 96 hours from amputation, all animals, n=9
  Fin regeneration: complete regenerative blocks
[6]; [11]
  Blastemal morphogenesis: did not occur
  Wound epidermis over the fin stumps: consistently formed
[6]; treatment of 24-72 hour fin regenerates
  Outgrowth of ongoing regenerates: inhibited further outgrowth
[6]; treatment of ongoing fin regenerates
  New bone deposition: not interrupted
Zebrafish fin regenerate [7]; 12-18 hours and 18-24 hours postamputation
  Proximal mesenchymal cell BrdU labeling: Normal
Zebrafish fin regenerate [7]; brief treatment during regenerative outgrowth, 40-48 hours postamputation
  Blastemal cell incorporation of BrdU: greatly reduced
